Data: patent US20110059114A1, “Compositions and Methods for the Treatment of Radioresistant Glioma Stem Cells” (DUKE UNIVERSITY, priority 2009, published 2011)

Legend:
Type in all cases: cell-based, human
Akt = test: Immunoblotting of phospho-Akt (S473); conditions: 2 μM DAPT
Description: FIG. 5 is a set of immunoblots and a graph illustrating that the Notch pathway regulates radioresistance of glioma stem cells via the Akt pathway and Mcl-1. T4302 CD 133+ cells were infected with control lentivirus or lentivirus directing expression of NICD2. Cells were pre-treated with or without 2 μM DPAT for 4 hours and exposed to 3-Gy radiation. Irradiated cells were collected at 24 or 48 hours after radiation, and sham-irradiated cells were collected at 48 hours after radiation. (A, C, D) Protein levels of phospho-Akt (S473), total Akt, PTEN, Bcl-2, Bcl-xL, Mcl-1, phospho-p53 (S15), total p53 and PUMA were assessed by immunoblotting. Actin was blotted as the loading control. (B) Control cells or NICD2-expressing cells were pre-treated with 10 μM PI3K inhibitor, LY294002, or 50 μM Akt inhibitor III (SH-6), for 4 hours prior to radiation exposure. Relative caspase 3/7 activities were determined at 48 hours after radiation exposure. #: p<0.001, by one-way ANOVA.
FIG. 13 is an immunoblot illustrating that LY294002 or Akt inhibitor III reduce Akt activity in glioma stem cells. T4302 glioma stem cells were treated with 10 μM LY294002 or 50 μM Akt inhibitor III (SH-6) in the presence or absence of radiation. Cells were collected for immunoblotting at 48 hours after radiation as described in FIG. 5.
Antibodies, DNA constructs, lentiviruses and other reagents. […]

CD133+ glioma stem cells = test: Clonogenic survival assay (neurosphere formation); conditions: T4302, 3-Gy radiation
Excerpt: FIG. 1 is a series of graphs illustrating that γ-secretase inhibitors reduce cell growth and clonogenic survival of glioma stem cells following radiation. (A) T4302 CD133+ glioma stem cells were transfected with a Notch-responsive luciferase reporter (RBP-JK reporter) pre-mixed with the vector directing constitutive expression of Renilla luciferase. Cells were left unirradiated or irradiated at 3 Gy, and were then collected to measure luciferase activities at time points as indicated. […] The relative mRNA levels of Hes2 were determined by quantitative real-time PCR at the time points as indicated. […] Total viable cell numbers were then determined by the CellTiter-Glo Luminescent Cell Viability Assay (Promega) for the following five days. […] Cells were then plated to form neurospheres, and the surviving fractions were determined as described in methods. […] (F,G) Neurosphere formation of T3359 and T4105 CD 133+ cells treated with GSIs alone, 3-Gy radiation alone, or the combination was determined as described in FIG. 1E. *: p<0.05 by Student's t-test; #: p<0.001 by one-way ANOVA.
To measure clonogenic survival, CD133+ glioma cells were plated in 24-well plates at 50 cells per well for the sham-irradiated groups, 100 cells per well for cells irradiated at 1 Gy, or 500 cells per well for cells irradiated at 2 or 3 Gy. […] Fourteen days after plating, neurospheres containing more than 50 cells were scored. […]

Chk1 and Chk2 = test: Immunoblotting of activating phosphorylation of Chk1 and Chk2; conditions: following radiation, pretreated 24 hours
Description: (A) T4302 CD133+ cells were pretreated with DPAT or L685,458 for 24 hours prior radiation. One hour after radiation exposure, cells were harvested. The levels of activating phosphorylation of Chk1 and Chk2 were assessed by immunoblotting. (B) T4302 CD133+ cells were treated with 2 μM DAPT at 4, 24 hours prior to radiation (−24 hrs, or -4 hrs), or at 0, 4, 24 hours after radiation. Relative caspase 3/7 activities were measured 3 days after radiation exposure. *: p<0.001 by Student's t-test.
Antibodies, DNA constructs, lentiviruses and other reagents. The antibodies purchased from Cell Signaling Technology (Danvers, M A) include phosphor-S296-Chk1 (2349), total Chk1 (2345), phosphor-T68-Chk2 (2661), total Chk2 (2662), phospho-5473 Akt (#9271), total Akt (#9272), PTEN (#9556), phospho-S15-p53 (#9286), Bcl-2 (#2870), Bcl-xL (#2764), Mcl-1 (#4572), Puma (#4976). Other antibodies used in this study are p53 antibody (#sc-126, Santa Cruz Biotechnology, Santa Cruz, Calif.), and actin antibody (Millipore, Billerica, Mass.). The pcDNA3-Notch1 construct was kindly provided by Dr. Spyros Artavanis-Tsakonas, Harvard University. The coding sequences of intracellular domain of Notch1 (amino acid residues 1744-2556) was amplified by PCR and subcloned into the lentiviral vector pCDH-CMV-EF1-puro (System Biosciences, Mountain View, Calif.) through the EcoRI and NotI sites. […]

CC(NC(=O)Cc1cc(F)cc(F)c1)C(=O)NC(C(=O)OC(C)(C)C)c1ccccc1 [DAPT, N-[N-(3,5-Difluorophenacetyl-L-alanyl)]-S-phenylglycine t-Butyl Ester]
Akt activation (phospho-S473 Akt) (Akt; 3-Gy radiation, control cells): reduced Akt activation | Akt activities increased by NICD2 expression (Akt; NICD2-expressing cells): partially attenuated but not abolished | clonogenic survival of irradiated NICD2-expressing cells (CD133+ glioma stem cells): did not significantly alter | activating phosphorylation of Chk1 or Chk2 (Chk1 and Chk2): Neither of DAPT or L685,458 significantly altered
